What was measured:
Experiment in all cases: relative viability (nuclei count vs DMSO), 5 days (fraction); higher = more cells survive
[1] = compound: C1CNCCC1C2=CC(=NN2)C3=CC=NC=C3 + CC1(C)CCC(c2ccc(Cl)cc2)=C(CN2CCN(c3ccc(C(=O)NS(=O)(=O)c4ccc(N[C@H](CCN5CCOCC5)CSc5ccccc5)c(S(=O)(=O)C(F)(F)F)c4)cc3)CC2)C1 [Navitoclax] (partner 0.5 µM)
How it was run: (§1)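 Lung cancer cell lines in 1536-well plates were dosed by pin tool the day after seeding, either with one drug alone or with a fixed anchor-drug dose plus five library-drug doses (not always all listed) in √10 steps. After 5 days, cells were fixed and their nuclei stained in one step (final 0.05% Triton X-100, 1% formaldehyde, 1 ug/ml Hoechst), then counted on 4× images. Relative viability is the nuclei count in treated wells divided by that in vehicle wells. Values are medians of duplicate plates.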

[2] = compound: C[C@@H](N)c1ccc(C(=O)Nc2ccnc3[nH]ccc23)cc1 + CC(C)C[C@H](NC(=O)[C@H](Cc1ccccc1)NC(=O)c1cnccn1)B(O)O [Bortezomib] (partner 0.002 µM)
How it was run: as §1

[3] = compound: C[C@@H](N)c1ccc(C(=O)Nc2ccnc3[nH]ccc23)cc1 + N=C(N)NC(=N)NCCc1ccccc1 [Phenformin] (partner 250 µM)
How it was run: as §1

[4] = compound: O[C@H]1CC[C@H](Nc2ncc3nc(Nc4c(F)cc(F)cc4F)n([C@H]4CCOC4)c3n2)CC1 [Tanzisertib] + Cc1cc(Nc2cc(N3CCN(C)CC3)nc(Sc3ccc(NC(=O)C4CC4)cc3)n2)n[nH]1 [Tozasertib] (partner 0.1 µM)
How it was run: as §1

## UMC-11
[1]; first compound 0.08 µM
  relative viability: 0.3
[1]; first compound 0.8 µM
  relative viability: 0.344
[1]; first compound 2.53 µM
  relative viability: 0.321
[1]; first compound 8 µM
  relative viability: 0.355
[2]; first compound 0.04 µM
  relative viability: 0.669
[2]; first compound 0.1265 µM
  relative viability: 0.717
[2]; first compound 0.4 µM
  relative viability: 0.768
[2]; first compound 1.265 µM
  relative viability: 0.286
[2]; first compound 4 µM
  relative viability: 0.415
[3]; first compound 0.04 µM
  relative viability: 0.268
[3]; first compound 0.1265 µM
  relative viability: 0.358
[3]; first compound 0.4 µM
  relative viability: 0.354
[3]; first compound 1.265 µM
  relative viability: 0.228
[3]; first compound 4 µM
  relative viability: 0.234
[4]; first compound 0.08 µM
  relative viability: 0.208
[4]; first compound 0.253 µM
  relative viability: 0.191
[4]; first compound 0.8 µM
  relative viability: 0.212
[4]; first compound 2.53 µM
  relative viability: 0.215
[4]; first compound 8 µM
  relative viability: 0.209

Reference: the supplement of paper PMC10307832
